What is called IC50 is the point on the concentration scale where inhibition reaches its midpoint.

“Also recorded” adds a separate entry of the source. A value given as a limit tells only on which side of the number the result lay.

For one assay, the system named is pGEX-6P-1 plasmid DNA. As to the kind of experiment: In vitro DNA cleavage analysis, agarose gel electrophoresis. Particulars: 50 ng plasmid, 0–100 µM compound, 37 °C, up to 72 h, pH 7.4. The class given is biochemical. On the procedure: In this assay, both single-stranded and double-stranded cleavage can be detected using bacterial plasmid DNA since the plasmid changes from the intact superhelical (sc) conformation to open circular (oc) and linear over digestion, which can be well detected by agarose gel electrophoresis. […] The RhCp* complex behaved similarly up to 10 µM, whereas at 100 µM concentration, the superhelical DNA remained intact during the incubation period, although the disappearance of the open circular DNA line is seen after 72 h. The observed effect is clearly not related to DNA cleavage; since fragmentation or the appearance of linear DNA could not be seen, the supercoiled DNA form was still visible. We can assume that the decrease in intensity might be due to the competition for DNA between the concentrated complex and EB (that is used for the detection of DNA in the gel).
Before the measurements, the reaction buffer was treated with 5 mg/L Chelex-100 (Sigma-Aldrich) cation exchange resin for 30 min at 25 °C. This was followed by filtration of the buffer through 0.2 µm pore size sterile, non-pyrogenic/endotoxin-free non-cytotoxic PES filter (Sarstedt) under laminal flow. The tested compounds were dissolved in this filtered cation exchanged buffer. pGEX-6P-1 DNA was purified by GeneJET plasmid maxiprep kit (Thermo Scientific™, Waltham, MA, USA) and was treated with Chelex-100 resin and filtered as described previously, and was followed by buffer exchange of the DNA sample using Amicon 10K 0.5 mL filters (4 × 5 min, 14,000 g, 25 °C) to the filtered reaction buffer. […] Based on agarose gel electrophoresis, no genomic DNA contamination was detected, and the plasmid DNA is largely in superhelical conformation with a small fraction of open circular form. In a typical reaction, 10 µL aliquots containing 50 ng DNA and 0–100 µM compound were incubated at 37 °C from 0 h up to 3 days. The reaction mixture was immediately examined after incubation or frozen at −30 °C until the gel electrophoresis experiment. […] Images were recorded by a Uvitec BTS 20MS gel documentation system.

Assay [1] relates to MRC-5 human lung fibroblast cell line. As to the kind of experiment: MTT cytotoxicity assay in MRC-5. The class given is cell-based. On the procedure: (§1) The in vitro cytotoxic activity of the novel water-soluble amino acid derivatives of HQCl and their RhCp* and RuCym complexes was measured by the thiazolyl blue tetrazolium bromide (MTT) assay in two human colon adenocarcinoma cell lines (Colo-205 and Colo-320) and in one non-tumoral human lung fibroblast cell line (MRC-5). The results are given in terms of IC50 values (Table 1). Colo-205 is a drug-sensitive cell line with a normal ABCB1 transporter expression pattern, while Colo-320 is multidrug-resistant and overexpresses the ABCB1 system.
(§2) All cell culture reagents were obtained from Sigma-Aldrich and plasticware from Sarstedt (Nümbrecht, Germany). Human colonic Colo-205 doxorubicin-sensitive and Colo-320/MDR-LRP multidrug-resistant adenocarcinoma and MRC-5 human embryonal lung fibroblast cell lines were purchased from LGC Promochem, Teddington, UK. The colonic adenocarcinoma cells were cultured in Roswell Park Memorial Institute (RPMI) 1640 medium supplemented with 10% heat-inactivated fetal bovine serum, 2 mM L-glutamine, 1 mM sodium pyruvate and […]. The MRC-5 cell line was cultured in Eagle’s Minimal Essential Medium (EMEM, Sigma-Aldrich, St. Louis, MO, USA) supplemented with a non-essential amino acid (NEAA) mixture (Sigma-Aldrich, St. Louis, MO, USA) a selection of vitamins, 10% heat-inactivated foetal bovine serum (FBS), 2 mM L-glutamine (Sigma-Aldrich, St. Louis, MO, USA), 1 mM Na-pyruvate (Sigma-Aldrich, St. Louis, MO, USA), nystatin (Sigma-Aldrich, St. Louis, MO, USA) and a penicillin-streptomycin mixture (Sigma-Aldrich, St. Louis, MO, USA) in con-centrations of 100 U/L and 10 mg/L, respectively. The cells were incubated at 37 °C, in a 5% CO2, 95% air atmosphere. All cell lines were detached with Trypsin-Versene (EDTA) solution for 5 min at 37 °C.
(§3) The tested compounds were dissolved in 10% (v/v) DMSO/H2O using 4 mM concentration. Doxorubicin (Merck, Darmstadt, Germany) was used as a positive control. Then stock solutions were diluted in complete culture medium, and two-fold serial dilutions of compounds were prepared in 100 μL of the medium, horizontally. The semi-adherent colonic adenocarcinoma cells were treated with Trypsin-Versene (EDTA) solution. They were adjusted to a density of 1 × 10^4 cells in 100 μL of RPMI 1640 or EMEM medium and were added to each well, with the exception of the medium control wells. The final volume of the wells containing compounds and cells was 200 μL. The plates containing Colo-205, Colo-320 or MRC-5 cells were incubated at 37 °C for 72 h; at the end of the incubation period, 20 μL of MTT solution (from a stock solution of 5 mg/mL) were added to each well. After incubation at 37 °C for 4 h, 100 μL of SDS solution (10% in 0.01 M HCI) were added to each well, and the plates were further incubated at 37 °C overnight. […] The IC50 values were obtained from at least 3 independent experiments.

In assay [2] the test system is Colo-205 human colon adenocarcinoma cell line (doxorubicin-sensitive). As to the kind of experiment: MTT cytotoxicity assay in Colo-205. Format: cell-based. The conditions noted are these: 72 h incubation. On the procedure:
as §1, §2, §3
In general terms: Tetrazolium assays rely on reduction of a dye to a coloured formazan, in cell work by metabolically active cells.

In assay [3] the target is T1, HSA site II (subdomain IIIA) (Homo sapiens, UniProt P02768).
T1 construct: purchased Sigma-Aldrich A8763
Description: Dansylglycine (DG) site marker displacement, spectrofluorometry. Format: binding. Particulars: cHSA = 1 µM, cDG = 1 µM, pH 7.4 (PBS’). On the procedure:
(§4) Tryptophan (Trp-214) quenching and dansylglycine (DG) site marker displacement experiments were performed to calculate binding constants for site I and II, respectively, similar to our previous works.
(§5) Fluorescence measurements were carried out on a Fluoromax (Horiba Jobin Yvon, Longjumeau, France) spectrofluorometer using 1 cm × 1 cm quartz cuvette. Samples contained 1 µM HSA or 1 µM DG and 1 µM HSA, or 20 µM (nucleotide) ct-DNA and 5 µM EB, and the complex concentration was varied between 0 and 40 µM or 0 and 300 µM, respectively. Spectroscopic measurements were carried out on individually prepared samples. Excitation wavelengths were 295 nm for Trp-214 quenching, 340 nm for the DG displacement studies and 510 nm for the ct-DNA–EB system. The calculated conditional stability constants for HSA–complex species were obtained using the computer program HypSpec. Calculations always were based on data obtained from at least two independent measurements. Self-absorbance and inner filter effect had to be taken into account, and corrections were made as was described in our former works.

Assay [4] relates to Colo-320 human colon adenocarcinoma cell line (multidrug-resistant). As to the kind of experiment: MTT cytotoxicity assay in Colo-320. Format: cell-based. Particulars: 72 h incubation. On the procedure: as §1, §2, §3
Assay [5] has as its target T2, HSA site I (subdomain IIA) (Homo sapiens, UniProt P02768).
T2 construct: purchased Sigma-Aldrich A8763
Description: Trp-214 quenching, spectrofluorometry. The class given is binding. Particulars: cHSA = 1 µM, pH 7.4 (PBS’), λEX = 295 nm. On the procedure:
as §4, §5

T2 sequence (P02768 25-609): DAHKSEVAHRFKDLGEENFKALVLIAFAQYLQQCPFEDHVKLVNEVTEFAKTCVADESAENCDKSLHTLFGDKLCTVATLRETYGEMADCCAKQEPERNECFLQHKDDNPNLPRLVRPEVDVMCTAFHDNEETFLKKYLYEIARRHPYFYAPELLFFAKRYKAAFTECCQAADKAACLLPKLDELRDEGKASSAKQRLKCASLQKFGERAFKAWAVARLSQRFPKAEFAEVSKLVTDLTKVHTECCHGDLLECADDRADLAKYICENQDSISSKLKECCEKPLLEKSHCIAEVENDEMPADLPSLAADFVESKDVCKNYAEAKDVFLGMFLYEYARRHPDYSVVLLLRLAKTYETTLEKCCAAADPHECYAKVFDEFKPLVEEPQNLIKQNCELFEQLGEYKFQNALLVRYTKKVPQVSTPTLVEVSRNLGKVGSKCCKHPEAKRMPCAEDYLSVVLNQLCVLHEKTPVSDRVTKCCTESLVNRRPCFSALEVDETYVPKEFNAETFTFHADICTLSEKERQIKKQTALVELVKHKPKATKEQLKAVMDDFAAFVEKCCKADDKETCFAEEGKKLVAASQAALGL
T1 sequence (P02768 25-609): as above

`O=C(O)[C@H]1CCCCN1Cc1cc(Cl)c2cccnc2c1O` [HQCl-D-hPro, (R)-5-chloro-7-((homoproline-1-yl)methyl)8-hydroxyquinoline]: the “DNA cleavage / DNA damage” value with pGEX-6P-1 plasmid DNA is “do not induce DNA cleavage; also recorded: No DNA damage was observed”. The same compound showed an IC50 in assay [1] (Homo sapiens, MRC5, 72 h incubation) of 3.63 ± 0.1 µM.

As to `Cc1c(C)c(C)[c-](C)c1C.O=C(O)[C@H]1CCC[NH+]1Cc1cc(Cl)c2cccnc2c1[O-].[Cl-].[Cl-].[Rh+3]` [RhCp*–HQCl-D-Pro, [RhCp*(HQCl-D-Pro)Cl]Cl], the IC50 in assay [2] came to 31.5 ± 1.4 µM; in assay [4], 34.3 ± 1 µM; in assay [1] (72 h incubation), 82.1 ± 5.1 µM. Besides, the “DG Displacement logKDG′, Site II” value in assay [3] is 5.5 ± 0.1. The “Trp-214 Quenching logKQ′, Site I” value in assay [5] turned out to be 5.6 ± 0.1.

With `Cc1c(C)c(C)[c-](C)c1C.O=C(O)[C@H]1CCCC[NH+]1Cc1cc(Cl)c2cccnc2c1[O-].[Cl-].[Cl-].[Rh+3]` [RhCp*–HQCl-D-hPro, [RhCp*(HQCl-D-hPro)Cl]Cl], in the assay with pGEX-6P-1 plasmid DNA, the “DNA cleavage / DNA damage” value is “do not induce DNA cleavage”. In addition, the results for the half-maximal inhibitory concentration (IC50) in assay [2], in assay [4] and in assay [1] (72 h incubation) were 21.5 ± 0.6 µM, 18.9 ± 0.54 µM and 37.6 ± 2.3 µM, respectively. The “DG Displacement logKDG′, Site II” value in assay [3] was 5.4 ± 0.1. Also, in assay [5], the “Trp-214 Quenching logKQ′, Site I” value worked out at 5.6 ± 0.1.

With `Cc1ccc(C(C)C)cc1.O=C(O)[C@H]1CCC[NH+]1Cc1cc(Cl)c2cccnc2c1[O-].[Cl-].[Cl-].[Ru+2]` [RuCym–HQCl-D-Pro, [RuCym(HQCl-D-Pro)Cl]Cl], the concentration for half-maximal inhibition (IC50) in assay [2], in assay [4] and in assay [1] (72 h incubation) was above 100 µM each time. Moreover, in assay [3], the “DG Displacement logKDG′, Site II” value was found to be 5.6 ± 0.1. The “Trp-214 Quenching logKQ′, Site I” value in assay [5] stood at 5.5 ± 0.1.

Turning to `Cc1ccc(C(C)C)cc1.O=C(O)[C@H]1CCCC[NH+]1Cc1cc(Cl)c2cccnc2c1[O-].[Cl-].[Cl-].[Ru+2]` [RuCym–HQCl-D-hPro, [RuCym(HQCl-D-hPro)Cl]Cl], in the assay on pGEX-6P-1 plasmid DNA, the “DNA cleavage / DNA damage” value is listed as “do not induce DNA cleavage; also recorded: No DNA damage was observed”. Also, the IC50 in assay [2], in assay [4] and in assay [1] (72 h incubation) was above 100 µM throughout. The “DG Displacement logKDG′, Site II” value in assay [3] came out at 5.7 ± 0.1. Further, the “Trp-214 Quenching logKQ′, Site I” value in assay [5] was 5.3 ± 0.1.

Source of the values: paper PMC8570331, “8-Hydroxyquinoline-Amino Acid Hybrids and Their Half-Sandwich Rh and Ru Complexes: Synthesis, Anticancer Activities, Solution Chemistry and Interaction with Biomolecules” (International Journal of Molecular Sciences, 2021).
